Measurements as given in patent US7455861B2, “Angelicae sinensis extracts useful for treatment of cancers” (priority 2004, dated 2008).
Values after ≈ are worked out from the molar mass of the structure shown.

What was measured:
[1] = tested on: brain tumor cell lines; assay: Cytotoxicity (IC50) on brain tumor cell lines, pooled statement; type: cell-based; conditions: GBM tumors not sensitive
Experimental: (§1) The effects on cell viability after the treatments with different concentrations of the Angelicae sinensis extracts or the active components purified therefrom were evaluated by modified MTT assay in triplicate. Briefly, the cells (5×10^3) were incubated into 96-well plates containing 100 μl of a growth medium. The cells were permitted to adhere for 24 hours, then treated with 100 μl of the herbal extracts or the active components dissolved in the medium. The control contained DMSO of <0.02% (v/v). After 24, 48 and 72 h incubation, the drug-containing medium was replaced by 50 μl of fresh medium, and cells in each well were incubated in 50 μl of 400 μg/ml MTT for 6-8 h. The medium and MTT were removed later and 100 μl of DMSO was added to each well and to the control, to dissolve the soluble components. Absorbance at 550 nm of the solutions was measured with MRX Microtiter Plate Luminometer (DYNEX, USA). The absorbance of untreated cells was considered as 100%. To evaluate the effects of the extracts or the active components on cell growth rate of GBM cells, 5×10^3 exponentially growing cells were treated with different concentrations for 24, 48, or 72 h. The cytotoxicity of each test substance was determined as an IC50 value, which represents the drug concentration required to cause 50% inhibition. All experiments in this study were performed in triplicate.

[2] = tested on: G5T/VGH; assay: Cytotoxicity (IC50) on G5T/VGH; type: cell-based; conditions: Homo sapiens; Table 2
Experimental: (§2) Human tumor cell lines (MCF-7, CL1-5, HT-29, Caco-2), human umbilical vascular endothelial cells (HUVEC), and human dermal fibroblasts (HDF) were tested for sensitivity on Angelicae sinensis extracts, ligustilide, n-butylidenephthalide and its derivatives in vitro. The DBTRG-05MG, BCM, HL-60 and J5 cells were grown in RPMI-1640 medium containing 10% fetal calf serum and 100 ng/ml penicillin and […] streptomycin at 37° C. in a humidified atmosphere with 5% CO2. The G5T/VGH, RG2, Ni 8, SVEC and Balb/3T3 cells were cultured in DMEM with 10% fetal calf serum and 100 ng/ml penicillin and […] streptomycin at 37° C. in 5% CO2. Mycoplasma infection of the culture cells was excluded by PCR screening methods before each experiment.
The effects on cell viability after the treatments with different concentrations of the Angelicae sinensis extracts or the active components purified therefrom were evaluated by modified MTT assay in triplicate. Briefly, the cells (5×10^3) were incubated into 96-well plates containing 100 μl of a growth medium. The cells were permitted to adhere for 24 hours, then treated with 100 μl of the herbal extracts or the active components dissolved in the medium. The control contained DMSO of <0.02% (v/v). […] Absorbance at 550 nm of the solutions was measured with MRX Microtiter Plate Luminometer (DYNEX, USA). The absorbance of untreated cells was considered as 100%. […]

[3] = Cytotoxicity (IC50) on HUVEC; type: cell-based, human; conditions: human
From the text: (§3) Human umbilical vascular endothelial cells (HUVECs) were purchased from Cascade Biologics, Inc. (USA). HUVECs were maintained in Medium 200 (Cascade Biologics, Inc. USA) supplemented with 10% fetal bovine serum (FBS; Gibco BRL) and low serum growth supplement (LSGS; Cascade Biologics, Inc. USA). Human dermal fibroblasts (HDFs) were purchased from Cascade Biologics, Inc. (USA). HDFs were maintained in Medium 106 (Cascade Biologics, Inc. USA) supplemented with 10% FBS and low serum growth supplement (LSGS; Cascade Biologics, Inc. USA). The human colon adenocarcinoma cell lines HT-29 were purchased from the ATCC (Manassas, Va. USA). HT-29 were maintained in Dubecco's Modified Eagle Medium (DMEM; Gibco) supplemented with 10% FBS and 100 ng/ml penicillin and […] streptomycin (Life Technologies, Inc., Grand Island, N.Y., USA). For the proliferation assay of cell in log growth (G1), the cells were harvested at 60-80% of confluence. 100 μl of cell suspensions were dispensed onto a Falcon 96-well plates The densities were 6×10^3 cells/well in Medium 200 (for HUVECs), and 9×10^3 cells/well in Medium 106 (for HDFs), and 5×10^3 cells/well in DMEM (for HT-29) supplemented with 10% FBS. The cells were pre-incubated for 24 hours in an incubator (Humidified atmosphere, e.g., at 37° C., 5% CO2). 10 μl of toxicant of various concentrations were added into the culture medium of the plate. The cell cultures were incubated for 48 hours. 10 μl of the Cell Counting Kit-8 (CCK-8; DOJINDO) solution were added and the cell cultures incubated for 1˜4 hours in the incubator. The absorbance was measured at 450 nm, using a microplate reader with a reference wavelength at 600 nm or over.
as §2, §1

[4] = tested on: DBTRG-05MG; assay: Cytotoxicity (IC50) on DBTRG-05MG; type: cell-based; conditions: Homo sapiens, read-out: Cytotoxicity (IC50) DBTRG-05MG
Experimental: as §2
as §1, with “All experiments in this study were performed in triplicate.” left out

[5] = tested on: RG2; assay: Cytotoxicity (IC50) on RG2; type: cell-based, rat; conditions: for IC50: Table 1, value in parentheses; for Cytotoxicity, IC50 RG2: cancer cells, Table 1
Experimental: as §2, §1

[6] = tested on: ETS-1; assay: RT-PCR of ETS-1 in HUVEC; type: cell-based, human
[7] = tested on: MMP-2; assay: RT-PCR of MMP-2 in HUVEC; type: cell-based, human
[8] = tested on: HUVEC; assay: Tube formation of HUVEC; type: cell-based, human
[9] = tested on: HUVEC; assay: Cytotoxicity (IC50) on HUVEC; type: cell-based, human; conditions: normal cells; for Cytotoxicity, IC50 HUVEC: Table 1; for IC50: Table 1, value in parentheses
From the text: as §3, §2, §1

[10] = tested on: HDF; assay: Cytotoxicity (IC50) on HDF; type: cell-based, human; conditions: normal cells; for Cytotoxicity, IC50 HDF: Table 1; for IC50: Table 1, value in parentheses
From the text: as §3, §2
as §1, with “To evaluate the effects of the extracts or the active components on cell growth rate of GBM cells, 5×10^3 exponentially growing cells were treated with different concentrations for 24, 48, or 72 h. The cytotoxicity of each test substance was determined as an IC50 value, which represents the drug concentration required to cause 50% inhibition. All experiments in this study were performed in triplicate.” left out

| Compound | IC50 GBM tumors [1] [µg/mL] | IC50 [2] [µg/mL] | IC50 [3] [µg/mL] | IC50 [4] [µg/mL] | IC50 [5] [µM] | Cytotoxicity, IC50 RG2 [5] [µg/mL] | Inhibition RT-PCR ETS-1 [6] [µg/mL] | Inhibition RT-PCR MMP-2 [7] [µg/mL] | Inhibition Tube Formation [8] [µg/mL] | Cytotoxicity, IC50 HUVEC [9] [µg/mL] | IC50 [9] [µM] | Cytotoxicity, IC50 HDF [10] [µg/mL] | IC50 [10] [µM] |
| --- | --- | --- | --- | --- | --- | --- | --- | --- | --- | --- | --- | --- | --- |
| O=NN(CCCl)C(=O)NCCCl [carmustin, reference compound] | > 100 | – | – | – | – | – | – | – | – | – | – | – | – |
| CC(=O)O[C@H]1C(=O)[C@@]2(C)[C@H]([C@H](OC(=O)c3ccccc3)[C@]3(O)C[C@H](OC(=O)[C@H](O)[C@@H](NC(=O)c4ccccc4)c4ccccc4)C(C)=C1C3(C)C)[C@]1(OC(C)=O)CO[C@@H]1C[C@@H]2O [Taxol, reference compound] | – | < 0.1 | < 0.1 | 61 ± 3.3 (≈ 71.4 µM) | – | – | – | – | – | – | – | – | – |
| CCC/C=C1\OC(=O)c2ccccc21 [BP-Z form] | – | – | – | – | > 106 | >20 | 159.4 | 531.3 | 159.4 | >100 | > 532 | 65.25 | 347 |
| CCC/C=C1/OC(=O)c2ccccc21 [BP-E form] | – | – | – | – | > 106 | >20 | 159.4 | – | – | >100 | > 532 | >100 | > 532 |
